# Measured values taken from PMC11899342, “Novel Triazeneindole Antibiotics: Synthesis and Hit-to-Lead Optimization” (International Journal of Molecular Sciences, 2025).
# Where two headings read alike, the source gives them in different places.
# Assays:
# MRSA clinical isolates = assay: MIC by broth microdilution against multidrug-resistant MRSA clinical isolates; format: cell-based, Staphylococcus aureus; details: for MIC: Staphylococcus aureus
# Method in brief: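 Multidrug-resistant clinical MRSA isolates, 1 × 10^6 CFU/mL suspension in Mueller Hinton broth, broth microdilution with compounds at final 1, 0.5, 0.25 and 0.125 mg/L. Incubated 18 h at 37 °C; MIC taken as lowest concentration with no visible growth, triplicate.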
# [1] = test system: human embryonic fibroblasts (HEFs); assay: MTT cytotoxicity on human embryonic fibroblasts; format: cell-based; details: Homo sapiens, Fibroblast, 24 h, ND = non-toxic in tested concentrations (up to 50 mg/L)
# Experimental: (§1) The primary screening of 22 substances was performed on human embryonic fibroblasts (HEFs). […] The HepG2 cell line was obtained from the American Type Culture Collection (ATCC cat. # HB-8065). The primary HEF cells (normal human embryonic fibroblasts) were derived from human embryonic stem cells. The cells were cultured in DMEM/F12 (1:1) medium containing 10% fetal bovine serum (Invitrogen, Carlsbad, CA, USA) at 37 °C and 5% CO2, according to standard mammalian tissue culture protocols and sterile technique. […] The incubation time with the substance was 24 h for all substances and cell lines. Cell detachment by trypsin, centrifugation, and counting in a hemocytometer were performed 16 h before the addition of the substance. For correct counting of the HepG2 cells, the cell suspension was passed through a syringe needle to get rid of cell aggregates. The cells were placed in the wells of a 96-well plate. The number of cells was selected according to the properties of the cell line and the final optical density in the experiment. Fibroblasts and hepatocytes were used in the amount of 10 thousand cells per well in 100 μL of DMEM/F12 medium supplemented with 10% fetal bovine serum. The substances were added to 100 µL of medium in the wells so that the final concentrations were 50, 25, 12.5, 6.25, 3.125, and 1.62 mg/L. The final well volume was 200 µL. The medium containing fetal bovine serum, without added substances, was used as a negative control. After 24 h, excessive amounts of medium were discarded. A total of 30 µL of MTT solution (5 mg/mL in PBS) was added to each well. After the precipitation of formazan crystals (3 h incubation), they were dissolved using 100 μL of dimethyl sulfoxide. The optical density (OD) was measured at 570 nm using a microplate reader (Eppendorf). For every condition, the cell viabilities were assessed in at least three independent experiments for every cell culture. Cell survival was calculated using the following formula:(OD of treated cells − OD blank)/(OD of control cells − OD blank) × 100%, where OD blank represents the OD values in wells without cells but with the addition of the MTT and DMSO solutions. The results were presented in the form of cytotoxicity curves, and the graphs were also plotted in a Microsoft Excel program; the calculation of the IC50 half-maximal inhibition concentration values was performed in a GraphPad Prism 6.0 (GraphPad Software Inc., San Diego, CA, USA) program, based on the equations of the cytotoxicity curves.
# [2] = test system: HepG2 human liver carcinoma cells; assay: MTT cytotoxicity (hepatotoxicity) on HepG2; format: cell-based; details: Homo sapiens, HepG2, 24 h
# Experimental: as §1
# MRSA = assay: Selectivity index (average IC50 on eukaryotic cells / average MIC on MRSA); format: cell-based, Staphylococcus aureus; details: average IC50 on eukaryotic cells divided by average MIC on MRSA
# Experimental: The selectivity index was calculated for each compound as the average IC50 on eukaryotic cells divided by the average MIC on MRSA (Table 2).
# [3] = Solubility in water by HPLC; format: physicochemical; details: water
# Experimental: The solubility of the compounds in water was assessed using HPLC analysis. Two 1.0 mg portions of the test compounds were dissolved in 10 μL of dimethyl sulfoxide; 1.0 mL of acetonitrile was added to one sample (standard), and 1.0 mL of water was added to the second sample (tested sample). Both vials were mixed in a shaker for 5 min, then centrifuged at 10,000 rpm for 5 min. The supernatants were collected and analyzed using Agilent 1290 Infinity (Agilent Technologies, Santa Clara, CA, USA) with a YMC-Triart C18 50 × 2.0 mm, 1.9 μm column. The concentration of the test compound in water was determined by comparing the peak areas of the standard (concentration 1.0 mg/mL) and the tested sample.
smiles,measurement,setting,value
"CCOC(=O)c1[nH]c2cc(F)ccc2c1/N=N/N1CCCC1 [BX-SI043, Ethyl (E)-6-fluoro-3-(pyrrolidin-1-yldiazenyl)-1H-indole-2-carboxylate]",MIC Range Against 8 MRSA Strains,"MRSA clinical isolates; 8 multidrug-resistant MRSA clinical isolates, tested 0.125-1 mg/L",0.25 µg/mL
same,minimal inhibitory concentration range,MRSA clinical isolates; 41 multidrug-resistant MRSA strains,0.125 to 0.5 µg/mL
same,times lower MIC than either vancomycin or linezolid,MRSA clinical isolates; MRSA,4–8 times
same,MIC,"MRSA clinical isolates; MRSA, 8 MRSA strains, read-out: lowest MIC values against most tested strains",0.25 µg/mL
same,MIC,"MRSA clinical isolates; MRSA, Figure 6, MRSA strain 2, read-out: MIC against 8 MRSA strains",0.25 µg/mL
same,MIC,"MRSA clinical isolates; MRSA, Figure 6, MRSA strain 7, read-out: MIC against 8 MRSA strains",0.25 µg/mL
same,MIC,"MRSA clinical isolates; MRSA, Figure 6, MRSA strain 8, read-out: MIC against 8 MRSA strains",0.25 µg/mL
same,MIC,"MRSA clinical isolates; MRSA, Figure 6, MRSA strain 9, read-out: MIC against 8 MRSA strains",0.25 µg/mL
same,MIC,"MRSA clinical isolates; MRSA, Figure 6, MRSA strain 13, read-out: MIC against 8 MRSA strains",0.25 µg/mL
same,MIC,"MRSA clinical isolates; MRSA, Figure 6, MRSA strain 21, read-out: MIC against 8 MRSA strains",0.25 µg/mL
same,MIC,"MRSA clinical isolates; MRSA, Figure 6, MRSA strain 48, read-out: MIC against 8 MRSA strains",0.25 µg/mL
same,MIC,"MRSA clinical isolates; MRSA, Figure 6, MRSA strain 50, read-out: MIC against 8 MRSA strains",0.25 µg/mL
same,MIC,"MRSA clinical isolates; MRSA, Table S4, MRSA strain 1, read-out: MIC",0.25 µg/mL
same,MIC,"MRSA clinical isolates; MRSA, Table S4, MRSA strain 2, read-out: MIC",0.5 µg/mL
same,MIC,"MRSA clinical isolates; MRSA, Table S4, MRSA strain 3, read-out: MIC",0.5 µg/mL
same,MIC,"MRSA clinical isolates; MRSA, Table S4, MRSA strain 4, read-out: MIC",0.5 µg/mL
same,MIC,"MRSA clinical isolates; MRSA, Table S4, MRSA strain 5, read-out: MIC",0.25 µg/mL
same,MIC,"MRSA clinical isolates; MRSA, Table S4, MRSA strain 6, read-out: MIC",0.5 µg/mL
same,MIC,"MRSA clinical isolates; MRSA, Table S4, MRSA strain 7, read-out: MIC",0.5 µg/mL
same,MIC,"MRSA clinical isolates; MRSA, Table S4, MRSA strain 8, read-out: MIC",0.25 µg/mL
same,MIC,"MRSA clinical isolates; MRSA, Table S4, MRSA strain 9, read-out: MIC",0.5 µg/mL
same,MIC,"MRSA clinical isolates; MRSA, Table S4, MRSA strain 10, read-out: MIC",0.25 µg/mL
same,MIC,"MRSA clinical isolates; MRSA, Table S4, MRSA strain 12, read-out: MIC",0.25 µg/mL
same,MIC,"MRSA clinical isolates; MRSA, Table S4, MRSA strain 13, read-out: MIC",0.5 µg/mL
same,MIC,"MRSA clinical isolates; MRSA, Table S4, MRSA strain 14, read-out: MIC",0.25 µg/mL
same,MIC,"MRSA clinical isolates; MRSA, Table S4, MRSA strain 15, read-out: MIC",0.25 µg/mL
same,MIC,"MRSA clinical isolates; MRSA, Table S4, MRSA strain 16, read-out: MIC",0.25 µg/mL
same,MIC,"MRSA clinical isolates; MRSA, Table S4, MRSA strain 17, read-out: MIC",0.5 µg/mL
same,MIC,"MRSA clinical isolates; MRSA, Table S4, MRSA strain 18, read-out: MIC",0.5 µg/mL
same,MIC,"MRSA clinical isolates; MRSA, Table S4, MRSA strain 21, read-out: MIC",0.5 µg/mL
same,MIC,"MRSA clinical isolates; MRSA, Table S4, MRSA strain 23, read-out: MIC",0.5 µg/mL
same,MIC,"MRSA clinical isolates; MRSA, Table S4, MRSA strain 24, read-out: MIC",0.5 µg/mL
same,MIC,"MRSA clinical isolates; MRSA, Table S4, MRSA strain 25, read-out: MIC",0.5 µg/mL
same,MIC,"MRSA clinical isolates; MRSA, Table S4, MRSA strain 26, read-out: MIC",0.25 µg/mL
same,MIC,"MRSA clinical isolates; MRSA, Table S4, MRSA strain 27, read-out: MIC",0.5 µg/mL
same,MIC,"MRSA clinical isolates; MRSA, Table S4, MRSA strain 28, read-out: MIC",0.5 µg/mL
same,MIC,"MRSA clinical isolates; MRSA, Table S4, MRSA strain 29, read-out: MIC",0.5 µg/mL
same,MIC,"MRSA clinical isolates; MRSA, Table S4, MRSA strain 30, read-out: MIC",0.5 µg/mL
same,MIC,"MRSA clinical isolates; MRSA, Table S4, MRSA strain 31, read-out: MIC",0.5 µg/mL
same,MIC,"MRSA clinical isolates; MRSA, Table S4, MRSA strain 34, read-out: MIC",0.125 µg/mL
same,MIC,"MRSA clinical isolates; MRSA, Table S4, MRSA strain 35, read-out: MIC",0.5 µg/mL
same,MIC,"MRSA clinical isolates; MRSA, Table S4, MRSA strain 36, read-out: MIC",0.25 µg/mL
same,MIC,"MRSA clinical isolates; MRSA, Table S4, MRSA strain 40, read-out: MIC",0.5 µg/mL
same,MIC,"MRSA clinical isolates; MRSA, Table S4, MRSA strain 41, read-out: MIC",0.25 µg/mL
same,MIC,"MRSA clinical isolates; MRSA, Table S4, MRSA strain 42, read-out: MIC",0.5 µg/mL
same,MIC,"MRSA clinical isolates; MRSA, Table S4, MRSA strain 43, read-out: MIC",0.5 µg/mL
same,MIC,"MRSA clinical isolates; MRSA, Table S4, MRSA strain 44, read-out: MIC",0.5 µg/mL
same,MIC,"MRSA clinical isolates; MRSA, Table S4, MRSA strain 45, read-out: MIC",0.5 µg/mL
same,MIC,"MRSA clinical isolates; MRSA, Table S4, MRSA strain 46, read-out: MIC",0.5 µg/mL
same,MIC,"MRSA clinical isolates; MRSA, Table S4, MRSA strain 48, read-out: MIC",0.5 µg/mL
same,MIC,"MRSA clinical isolates; MRSA, Table S4, MRSA strain 49, read-out: MIC",0.25 µg/mL
same,MIC,"MRSA clinical isolates; MRSA, Table S4, MRSA strain 50, read-out: MIC",0.5 µg/mL
same,MIC,"MRSA clinical isolates; MRSA, Table S4, MRSA strain 51, read-out: MIC",0.5 µg/mL
same,IC50,[1],19 µg/mL
same,IC50,[2],19 µg/mL
same,Selectivity Index,MRSA,76
same,solubility at 5 min,"[3]; read-out: Solubility in water, mass concentration",0.88 µg/mL
same,solubility at 5 min,"[3]; read-out: Solubility in water, molar concentration",3 µM
